pIC50: −log10 of the molar value.
What was measured:
[1] = Mouse brain microPET imaging; assay type: in vivo, mice
Protocol: Mouse Brain MicroPET Imaging
FIGS. 11 and 12 show the results of mouse brain imaging with 18F-W372 in WT and APP mice. […] There is not much difference between APP and WT mice, but both App mice do appear to be slightly better retained after 13 min (App:WT=1.5:1).
FIGS. 14a and 14b show a comparison of brain uptake between 18F-PiB and 18F-W372 using dynamic microPET scanning in young and old mice. […] The rapid washout of [18F]W372 is presumably a major factor for its low non-specific binding, yet the washout is slow enough to distinguish WT from APP.

[2] = system: human brain slices from AD patients; test: Grey to white matter binding of tracers on human AD brain slices under various washing conditions; conditions: EtOH:water washes
Protocol: A study was conducted to examine the grey to white matter binding ratios for 2 different tracers: 18F-W372 and 18F-PiB. After the human brain slices from AD patients were incubated with a given tracer for 1 hr, the slices were washed with various EtOH:water solutions in an attempt to optimize the grey to white matter ratios. The results were surprising and unexpected in view of previous work performed by other researchers.

[3] = Mouse metabolism studies (organ uptake and metabolites); assay type: in vivo; conditions: mice, tail-vein
Protocol: Approximately 400 μCi of [F-18]W372 (at a volume of 200 μL) was injected via tail-vein into mice. The animals were sacrificed at 5 minutes (n=3) and 30 minutes (n=3) post-injection. Whole blood was obtained, weighed, and centrifuged at 13,000 RPM (3 minutes) to isolate plasma. The brain, kidneys, and liver were harvested, weighed, and homogenized in lysis buffer. 400 μL of each sample was subsequently removed, mixed with an equal volume of chloroform/methanol (1:1), vigorously vortexed, and placed on dry ice for 3 minutes. After thawing, another centrifugation step at 13,000 RPM (7 minutes) allowed for the separation of lipid (CHCl3) and aqueous (MeOH/H2O) phases. The hydrophobic and hydrophilic fractions were then removed, counted for radioactivity in a PerkinElmer Wizard gamma counter, and finally analyzed by Radio-HPLC (Raytest GmbH/Agilent).

[4] = biological target: synthetic beta-Amyloid-42 (Homo sapiens, UniProt P05067); test: Amyloid fibril (synthetic A-Beta42) binding assay; conditions: 10 uM synthetic beta-Amyloid-42, 90 min; compared with 18F-PiB
Protocol: Amyloid Fibril (Synthetic A-Beta42) Binding Assay Incubation of various concentration of [F18]-compound (starting with 200 nM cold compound and 100 μCi of F18-compound) with or without 10 μM of synthetic beta-Amyloid-42 for 90 min Filter through G/F glass fiber, wash filter 2 times with 20% ethanol/PBS at room temperature, count the radioactivity, and measure the KD value.

[5] = biological target: 18F-PiB binding sites, amyloid plaque and fibril in human brain slices (Homo sapiens, UniProt P05067); test: Human AD brain slice competition against 18F-PiB (IC50); conditions: for pIC50: tracer 18F-PiB, human AD brain slices, blocker 0.01 to 10 uM
Protocol: (§1) The slices were incubated at room temperature for 90 min. The slices were then quickly washed in PBS, followed by 70% EtOH:PBS for 2 min, then 30% EtOH:PBS for 2 min and then quickly washed with PBS. The slices were dried for 30 min and then exposed on autoradiographic film for 20 min. The brain slices were then removed from the slide and the radioactivity counted in a gamma counter. The percentage of blocking versus the concentrations of blocker was then plotted, and IC50 was calculated based on the curve.

[6] = biological target: 18F-W372 binding sites, amyloid plaque and fibril in human brain slices (Homo sapiens, UniProt P05067); test: Human AD brain slice competition against 18F-W372 (IC50); conditions: tracer 18F-W372, blocker 0.01 to 10 uM
Protocol: as §1

[7] = system: amyloid plaques and fibrils in human brain slices; test: Human brain slice competition assay using autoradiography; assay type: binding; conditions: radiolabeled tracer approx. 20 uCi, 90 min rt, lower = more displacement; for _max low dose (percent dose remaining relative to control with no blocker): blocker 0.25 uM; for _max high dose (percent dose remaining relative to control with no blocker): blocker 2.5 uM
Protocol: Human Brain Slice Competition Assay Using Autoradiography
Briefly, 5 micron thick human brain slices from regions of the brain bearing high amyloid plaque and fibril burden were incubated with approximately 20 uCi of a radiolabeled tracer in 2.5%:2.5%:95% DMSO:EtOH:PBS in the presence of blocker (2.5 and 0.25 uM total concentration) or absence of blocker (control). The slices were incubated at rt for 90 min. The slices were then quickly washed in PBS, followed by 70% EtOH:PBS for 2 min, then 30% EtOH:PBS for 2 min and then quickly washed with PBS. The slices were dried for 30 min and then exposed on autoradiographic film for 20 min. The brain slices were then removed from the slide and the radioactivity counted in a gamma counter. The percent dose remaining, relative to a control with no blocker, at 0.25 uM is represented in the “_max low dose” column. The percent dose remaining, relative to a control with no blocker, at 2.5 uM is represented in the “_max high dose” column.

18F-PiB binding sites, amyloid plaque and fibril in human brain slices, sequence (P05067 672-711 limits assumed): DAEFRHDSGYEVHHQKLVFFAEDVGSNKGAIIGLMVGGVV
18F-W372 binding sites, amyloid plaque and fibril in human brain slices, sequence (P05067 whole entry): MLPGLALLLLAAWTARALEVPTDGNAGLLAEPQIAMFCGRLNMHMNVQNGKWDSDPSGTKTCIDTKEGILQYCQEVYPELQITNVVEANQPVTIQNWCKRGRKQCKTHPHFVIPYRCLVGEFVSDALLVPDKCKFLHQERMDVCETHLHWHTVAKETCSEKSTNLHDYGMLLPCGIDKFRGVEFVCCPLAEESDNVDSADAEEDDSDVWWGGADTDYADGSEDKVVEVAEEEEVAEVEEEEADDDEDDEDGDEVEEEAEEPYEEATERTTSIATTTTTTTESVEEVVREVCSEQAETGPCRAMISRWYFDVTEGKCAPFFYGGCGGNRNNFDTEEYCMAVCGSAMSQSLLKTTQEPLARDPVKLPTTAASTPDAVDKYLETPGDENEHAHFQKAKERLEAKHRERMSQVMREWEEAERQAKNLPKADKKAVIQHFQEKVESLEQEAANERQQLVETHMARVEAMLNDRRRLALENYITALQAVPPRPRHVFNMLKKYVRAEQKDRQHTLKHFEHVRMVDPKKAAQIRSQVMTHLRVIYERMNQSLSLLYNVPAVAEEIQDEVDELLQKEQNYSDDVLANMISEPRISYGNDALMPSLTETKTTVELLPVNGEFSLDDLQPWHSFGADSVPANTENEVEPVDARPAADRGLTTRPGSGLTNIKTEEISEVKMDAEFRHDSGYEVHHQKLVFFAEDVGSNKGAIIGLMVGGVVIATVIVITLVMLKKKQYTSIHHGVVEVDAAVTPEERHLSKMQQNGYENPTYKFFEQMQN
synthetic beta-Amyloid-42, sequence (P05067 672-713 limits assumed): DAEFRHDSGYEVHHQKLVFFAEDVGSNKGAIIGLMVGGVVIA

| Structure (SMILES) | pIC50 [5] | pIC50 [6] | _max low dose (percent dose remaining relative to control with no blocker) [7] | _max high dose (percent dose remaining relative to control with no blocker) [7] | other results |
| --- | --- | --- | --- | --- | --- |
| COc1ccc2c(n1)sc1nc(-c3ccc([18F])nc3)cn12 [Compound 18F-W372] |  |  |  |  | brain washout (microPET) ([1]; 30 minute dynamic scans, young/old, WT/App mice): sufficiently slow washout such that one can distinguish WT from APP mice; brain uptake (microPET) ([1]; WT and APP mice): > 9 % ID/g; grey to white matter binding ratios ([2]; 1 hr incubation): excellent grey to white matter binding ratios; non-specific (white matter) binding [2]: lower non-specific binding than 18F-PiB; brain uptake ([3]; 5 minutes post-injection): 3.8 % ID/g; brain uptake ([3]; 30 minutes post-injection): 0.47 % ID/g; KD value, synthetic amyloid fibril [4]: lower KD value compared with the known compound 18F-PiB |
| COc1ccc2c(n1)sc1nc(-c3ccc(F)nc3)cn12 [Compound W372, 7-Methoxy-2(6-fluoropyridin-3-yl)imidazo[2,1-b]8-pyridinothiazole] | 7.14 | 7.43 |  |  | competition with 18F-PiB for binding sites / binding affinity relative to PiB ([5]; human AD brains): strongly competes with 18F-PiB for binding sites in human AD brains |
| COc1ccc2c(n1)oc1nc(-c3ccc(F)cc3)cn12 [Compound W386, 7-Methoxy-2(4-fluorophenyl)imidazo[2,1-b]8-pyridino-oxazole] | 6.68 | 7.15 |  |  |  |
| COc1ccc2c(n1)oc1nc(-c3ccc(F)nc3)cn12 [Compound W393] |  | 6.77 |  |  |  |
| COc1ccc(-n2c(=O)sc3ccccc32)cc1 [UG470, 3-(4-methoxyphenyl)benzo[d]thiazol-2(3H)-one] |  |  | 81.29% | 79.87% |  |
| CN(C)c1ccc(-c2ncc(/C=C/c3ccc(O)cc3)s2)cc1 [UG-4-69, (E)-4-(2-(2-(4-(dimethylamino)phenyl)thiazol-5-yl)vinyl)phenol] |  |  | 69.79% | 31.02% |  |
| O=CNc1ccc2c(c1)[nH]c1cc(OCc3ccccc3)ccc12 [WZ01169] |  |  | 42.09% | 36.55% |  |
| Nc1nc(-c2ccc3ccccc3c2)cs1 [w18] |  |  | 69.20% | 27.86% |  |
| Oc1ccc2c(c1)[nH]c1cc(NCCF)ccc12 [w78] |  |  | 99.49% | 63.32% |  |

More lines, main results first:

| pIC50 [5] | pIC50 [6] | Structure (SMILES) | _max low dose (percent dose remaining relative to control with no blocker) [7] | _max high dose (percent dose remaining relative to control with no blocker) [7] | other results |
| --- | --- | --- | --- | --- | --- |
| 7.10 |  | COc1ccc2c(n1)sc1nc(-c3ccc(F)cc3)cn12 [Compound W332] |  |  |  |
| 7.14 |  | COc1ccc2c(c1)oc1nc(-c3ccc(F)cn3)cn12 [Compound W380, 7-methoxy-2-(5-fluoro-2-pyridyl)-imidazo[2,1-b]benzoxazole] |  |  |  |
|  | 6.82 | COc1ccc2c(c1)sc1nc(-c3ccc(F)nc3)cn12 [Compound W388] |  |  |  |
| 6.89 |  | COc1ccc2c(n1)sc1nc(-c3ccc(F)c(O)c3)cn12 [Compound W389] |  |  |  |
|  | 6.68 | COc1ccc2c(n1)sc1nc(-c3cnc(F)cn3)cn12 [Compound W392, 7-methoxy-2(2-fluoropyrazin-5-yl)imidazo[2,1-b]8-pyridinothiazole] |  |  |  |
